Data reported in ChEMBL document CHEMBL1201862, “PubChem BioAssay data set” (2004).
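Compound exposure: 48 hours, 5 concentrations, 96-well plates. The concentration for 50% growth inhibition is given as GI50.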 Active and inactive are the calls of the source. Rule as the data show it: active = GI50 up to about 1.1 µM and inactive = higher.

Assays:
Test in all cases: inhibition of tumour cell growth, NCI panel, 48 h
COLO 205 = test system: COLO 205
M19-MEL = test system: M19-MEL
RPMI-8226 = test system: RPMI-8226
SR = test system: SR
A498 = test system: A498
SK-OV-3 = test system: SK-OV-3
M14 = test system: M14
MOLT-4 = test system: MOLT-4
OVCAR-3 = test system: OVCAR-3
LOX IMVI = test system: LOX IMVI
UO-31 = test system: UO-31
OVCAR-4 = test system: OVCAR-4
RXF 393 = test system: RXF 393
NCI-H226 = test system: NCI-H226
KM12 = test system: KM12
NCI-H23 = test system: NCI-H23
SNB-78 = test system: SNB-78
EKVX = test system: EKVX
OVCAR-5 = test system: OVCAR-5
786-0 = test system: 786-0
HCT-116 = test system: HCT-116
SF-539 = test system: SF-539
U-251 = test system: U-251
DMS-114 = test system: DMS-114
ACHN = test system: ACHN
HCC 2998 = test system: HCC 2998
A549 = test system: A549
KM-20L2 = test system: KM-20L2
OVCAR-8 = test system: OVCAR-8
HT-29 = test system: HT-29
SF-268 = test system: SF-268
HOP-92 = test system: HOP-92
NCI-H460 = test system: NCI-H460
Malme-3M = test system: Malme-3M
SK-MEL-28 = test system: SK-MEL-28
SNB-75 = test system: SNB-75
HOP-18 = test system: HOP-18
SK-MEL-5 = test system: SK-MEL-5
DMS-273 = test system: DMS-273
IGROV-1 = test system: IGROV-1
SK-MEL-2 = test system: SK-MEL-2
HCT-15 = test system: HCT-15
CCRF-CEM = test system: CCRF-CEM
LXFL 529 = test system: LXFL 529
UACC-257 = test system: UACC-257
TK-10 = test system: TK-10
HL-60 = test system: HL-60
SN12C = test system: SN12C
SF-295 = test system: SF-295
DLD-1 = test system: DLD-1
K562 = test system: K562
NCI-H522 = test system: NCI-H522
HOP-62 = test system: HOP-62
SW-620 = test system: SW-620
UACC-62 = test system: UACC-62

O=C1O/C(=C(\Br)c2cccc3ccccc23)c2ccccc21
GI50 (COLO 205): 28.3 µM (inactive) | GI50 (M19-MEL): 36.1 µM (inactive) | GI50 (RPMI-8226): 22.2 µM (inactive) | GI50 (SR): 19.7 µM (inactive) | GI50 (A498): 19.1 µM (inactive) | GI50 (SK-OV-3): > 39.8 µM (inactive) | GI50 (M14): > 44.2 µM (inactive) | GI50 (MOLT-4): 21.5 µM (inactive) | GI50 (OVCAR-3): 26.8 µM (inactive) | GI50 (LOX IMVI): 73.6 µM (inactive) | GI50 (UO-31): > 41.3 µM (inactive) | GI50 (OVCAR-4): 16.5 µM (inactive) | GI50 (RXF 393): > 49 µM (inactive) | GI50 (NCI-H226): > 41.3 µM (inactive) | GI50 (KM12): 29.7 µM (inactive) | GI50 (NCI-H23): > 40 µM (inactive) | GI50 (SNB-78): 30.8 µM (inactive) | GI50 (EKVX): > 42 µM (inactive) | GI50 (OVCAR-5): > 40.2 µM (inactive) | GI50 (786-0): 17.4 µM (inactive) | GI50 (HCT-116): 31.4 µM (inactive) | GI50 (SF-539): 48.1 µM (inactive) | GI50 (U-251): > 100 µM (inactive) | GI50 (DMS-114): > 33.3 µM (inactive) | GI50 (ACHN): 34.2 µM (inactive) | GI50 (HCC 2998): > 65.3 µM (inactive) | GI50 (A549): 20 µM (inactive) | GI50 (KM-20L2): 25.1 µM (inactive) | GI50 (OVCAR-8): > 43.7 µM (inactive) | GI50 (HT-29): 22.5 µM (inactive) | GI50 (SF-268): > 37.5 µM (inactive) | GI50 (HOP-92): 29 µM (inactive) | GI50 (NCI-H460): > 53.6 µM (inactive) | GI50 (Malme-3M): > 46.7 µM (inactive) | GI50 (SK-MEL-28): > 35.1 µM (inactive) | GI50 (SNB-75): > 50.4 µM (inactive) | GI50 (HOP-18): 19.5 µM (inactive) | GI50 (SK-MEL-5): 22.8 µM (inactive) | GI50 (DMS-273): 24.5 µM (inactive) | GI50 (IGROV-1): 27.9 µM (inactive) | GI50 (SK-MEL-2): > 42.8 µM (inactive) | GI50 (HCT-15): 31.3 µM | GI50 (CCRF-CEM): 20 µM (inactive) | GI50 (LXFL 529): > 47.1 µM (inactive) | GI50 (UACC-257): > 40.9 µM (inactive) | GI50 (TK-10): 30.4 µM (inactive) | GI50 (HL-60): 19.5 µM (inactive) | GI50 (SN12C): 21.3 µM (inactive) | GI50 (SF-295): > 38.1 µM (inactive) | GI50 (DLD-1): 23.5 µM (inactive) | GI50 (K562): 25.2 µM (inactive) | GI50 (NCI-H522): 16 µM (inactive) | GI50 (HOP-62): > 100 µM (inactive) | GI50 (SW-620): 27 µM (inactive) | GI50 (UACC-62): 35.2 µM (inactive)
